From PubChem BioAssay AID602184 (Broad Institute, 2012) come the findings set out here.

Calls of active or inactive are those of the source.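 How the source made its calls: active means compounds whose fitted half-effect growth-inhibition concentration is no more than twice their top tested dose; inconclusive means flat curve showing moderate inhibition, or an unreliable curve fit; inactive means the rest.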

A short description of experiment [1]: S. cerevisiae growth inhibition on glycerol, dose response, glycerol medium, OD600, dry powder (AID 602184). Particulars: S. cerevisiae growth in glycerol medium, OD600, 48 h.
The test system of experiment [2] is S. cerevisiae growth in glycerol medium, OD600, 48 h. Described as above.

For `COc1ccc(-c2nnc(NC(=O)c3ccc(S(=O)(=O)N4CCCc5ccccc54)cc3)o2)cc1`, in experiment [1] (at 19.5 µM (top of the series)), the activity change, negative = growth inhibition is -22.8% (inactive).
Consider `CCOC(=O)N1C(=O)C2(CCCCC2)N(c2ccc(C)cc2)C1=S`, for which the concentration at half-maximal activity (AC50) in experiment [2] was under 0.08 µM.
Still for that read-out and setting: for `O=C(Nc1nnc(-c2ccc3c(c2)CCCC3)o1)c1ccccc1` the value was 16.1 µM.
For `Cc1ccc(C(=O)Nc2nnc(-c3ccccc3)o2)cc1C`, in experiment [1] (at 19.5 µM (top of the series)), the activity change, negative = growth inhibition was -3.03% (inactive).
Turning to `O=C(Nc1nnc(-c2ccc3c(c2)CCCC3)o1)c1ccc(Cl)cc1Cl`, the half-maximal activity concentration (AC50) in experiment [2] was 14.8 µM.
On the same count and under the same terms, for `Cc1ccc(C(=O)Nc2nc(-c3ccccn3)cs2)cc1` the value was 6.34 µM.
Take `Oc1c(C(c2ccccc2Cl)N2CCCCC2)ccc2cccnc12` (centres undefined): in experiment [2], the half-maximal activity concentration (AC50) was 21.8 µM.
On to `Oc1c(CN2CCc3ccccc3C2)cc(Cl)c2cccnc12`, for which the AC50 in experiment [2] is 8.17 µM.
Same read-out and setting: for `CN1CCN(C(c2ccc(C(F)(F)F)cc2)c2ccc3cccnc3c2O)CC1` (centres undefined) the value was 3.1 µM.
Turning to `O=C(Nc1nc(-c2ccc3c(c2)CCCC3)cs1)c1ccccc1`, the activity change, negative = growth inhibition in experiment [1] (at 19.5 µM (top of the series)) is -4.76% (inactive).
On to `C=CCNC(=S)N/N=C(\C)c1ccccn1`, for which the half-maximal activity concentration (AC50) in experiment [2] is 8.88 µM.
Still for that read-out and setting: for `O=C(Nc1nc(-c2ccccn2)cs1)c1ccc(Br)s1` the value was 1.01 µM.
For `NC(=O)c1cccc(C(=O)Nc2nc(-c3ccc4c(c3)CCCC4)cs2)c1`, the activity change, negative = growth inhibition in experiment [1] (at 19.5 µM (top of the series)) is -13.9% (inactive).
Same read-out and setting: for `O=C(Nc1nc(-c2ccccc2)cs1)c1ccc(Br)s1` the value was -11.7% (inactive); for `Oc1c(C(c2ccc(Cl)cc2)N2CCCC2)ccc2cccnc12` (centres undefined), -8.5% (inactive).
For the molecule `C/C(=N\NC(=O)c1cc2ccccc2cc1O)c1ccccn1`, in experiment [2], the AC50 was 14.4 µM.
As for `CCCC(=O)NC(c1cccs1)c1cc(Cl)c2cccnc2c1O` (centres undefined), the concentration at half-maximal activity (AC50) in experiment [2] is 10.6 µM.
On the same count and under the same terms, for `O=C(Oc1c(Cl)cc(Cl)c2cccnc12)c1ccco1` the value was 0.64 µM.
The same measure, in the same setting: for `Cc1ccc(-c2nc3c(Cl)cc(Cl)cc3c(=O)n2O)cc1` the value was 3.71 µM; for `O=C(Nc1nc(-c2ccccn2)cs1)c1ccccc1`, 18.9 µM.
Turning to `Cc1cc(C)n(-c2nc3ccccc3c(=O)n2OCC#N)n1`, the activity change, negative = growth inhibition in experiment [1] (at 19.5 µM (top of the series)) is -14.8% (inactive).
For the molecule `O=C(Nc1nc(-c2ccccn2)cs1)c1ccc(Cl)s1`, the AC50 in experiment [2] was 1.55 µM.
Still for that read-out and setting: for `O=C(NNC(=S)Nc1ccc(Cl)c(Cl)c1)c1ccccn1` the value was 12.7 µM.
In the case of `Oc1c(CN2CCN(c3ccccc3)CC2)cc(Cl)c2cccnc12`, the activity change, negative = growth inhibition in experiment [1] (at 23.5 µM (top of the series)) was -52.9% (inactive).
